Measured values: patent US20110082157A1, “Piperidinylamino-Thieno [2,3-D] Pyrimidine Compounds” (priority 2004, published 2011)
Structures can show the parent of a compound that is named as a salt.

target: hERG (Homo sapiens, UniProt Q12809); test: hERG % inhibition at 1 uM; details: not given
Sequence (Q12809 whole entry): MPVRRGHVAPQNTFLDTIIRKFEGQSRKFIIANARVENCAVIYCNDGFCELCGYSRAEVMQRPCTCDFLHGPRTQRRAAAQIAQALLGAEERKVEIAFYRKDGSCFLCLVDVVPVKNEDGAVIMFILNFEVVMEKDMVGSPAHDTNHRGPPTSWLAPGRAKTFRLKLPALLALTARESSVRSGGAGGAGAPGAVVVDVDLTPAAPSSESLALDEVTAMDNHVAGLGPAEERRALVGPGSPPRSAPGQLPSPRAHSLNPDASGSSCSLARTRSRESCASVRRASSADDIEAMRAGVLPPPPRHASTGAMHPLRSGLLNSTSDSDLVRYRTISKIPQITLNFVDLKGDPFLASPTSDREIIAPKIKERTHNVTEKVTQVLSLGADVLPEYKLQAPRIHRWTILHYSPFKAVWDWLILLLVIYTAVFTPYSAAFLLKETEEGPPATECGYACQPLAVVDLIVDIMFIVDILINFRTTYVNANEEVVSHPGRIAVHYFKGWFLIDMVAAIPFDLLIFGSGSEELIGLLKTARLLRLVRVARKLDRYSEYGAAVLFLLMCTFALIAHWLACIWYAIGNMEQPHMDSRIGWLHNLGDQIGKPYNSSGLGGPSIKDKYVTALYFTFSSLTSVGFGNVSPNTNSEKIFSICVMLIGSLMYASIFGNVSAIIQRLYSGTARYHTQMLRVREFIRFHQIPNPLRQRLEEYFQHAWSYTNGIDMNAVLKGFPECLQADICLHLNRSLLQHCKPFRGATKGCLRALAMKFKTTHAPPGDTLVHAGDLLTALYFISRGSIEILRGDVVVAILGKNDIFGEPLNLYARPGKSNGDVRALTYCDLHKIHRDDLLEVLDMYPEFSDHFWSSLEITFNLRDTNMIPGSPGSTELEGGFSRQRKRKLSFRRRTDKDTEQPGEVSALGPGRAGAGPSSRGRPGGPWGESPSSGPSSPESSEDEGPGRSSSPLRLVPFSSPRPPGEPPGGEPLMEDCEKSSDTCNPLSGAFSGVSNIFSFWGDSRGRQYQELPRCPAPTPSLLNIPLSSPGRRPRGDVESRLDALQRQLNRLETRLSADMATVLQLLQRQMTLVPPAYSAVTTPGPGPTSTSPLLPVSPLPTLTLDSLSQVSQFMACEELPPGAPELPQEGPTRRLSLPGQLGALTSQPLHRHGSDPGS

Structure (SMILES)	hERG (% Inhibition at 1 uM)
Fc1ccccc1CN1CCC(Nc2ncnc3sc4c(c23)CCCC4)CC1 [Example B4, N-(1-(2-fluorobenzyl)piperidin-4-yl)5,6,7,8-tetrahydro-benzo[4,5]thieno[2,3-d]pyrimidin-4-amine]	hERG (% Inhibition at 1 uM): 58.5
CC(C)Cc1cc2c(NC3CCN(C(C)c4c(F)cc(F)cc4F)CC3)ncnc2s1 (centres unmarked) [Example B19, N-(1-(1-(2,4,6-trifluorophenyl)ethyl)piperidin-4-yl)-6-isobutylthieno[2,3-d]pyrimidin-4-amine, dihydrochloride]	hERG (% Inhibition at 1 uM): 50.2
Cc1sc2ncnc(NC3CCN(Cc4ccccc4C#N)CC3)c2c1C [Example B36, 2-((4-(5,6-dimethylthieno[2,3-d]pyrimidin-4-ylamino)piperidin-1-yl)methyl)benzonitrile, dihydrochloride]	hERG (% Inhibition at 1 uM): 21.7

system: not listed separately; test: HLM T1/2; details: human, liver microsomes

half-life	Structure (SMILES)
< 15 min	CC(c1cccc(F)c1)N1CCC(Nc2ncnc3sc4c(c23)CCCC4)CC1 (centres unmarked) [Example B10, N-(1-(1-(3-fluorophenyl)ethyl)piperidin-4-yl)-(5,6,7,8-tetrahydro-benzo[4,5]thieno[2,3-d]pyrimidin-4-amine, dihydrochloride]
< 15 min	Cc1sc2ncnc(NC3CCN(C(C)c4cccc(F)c4)CC3)c2c1C (centres unmarked) [Example B13, N-(1-(1-(3-fluorophenyl)ethyl)piperidin-4-yl)-5,6-dimethylthieno[2,3-d] pyrimidin-4-amine, dihydrochloride]
< 15 min	CC(c1cccc(F)c1)N1CCC(C)(Nc2ncnc3sc4c(c23)CCCC4)CC1 (centres unmarked) [Example B15, N-(1-(1-(3-fluorophenyl)ethyl)-4-methylpiperidin-4-yl) 5,6,7,8-tetrahydro-benzo[4,5]thieno[2,3-d]pyrimidin-4-amine, dihydrochloride]
< 15 min	CC(C)CC(c1cccc(F)c1)N1CCC(Nc2ncnc3sc4c(c23)CCCC4)CC1 (centres unmarked) [Example B16, N-(1-(1-(3-fluorophenyl)-3-methylbutyl)piperidin-4-yl)5,6,7,8-tetrahydro-benzo[4,5]thieno[2,3-d] pyrimidin-4-amine, dihydrochloride]
< 15 min	CC(C)Cc1cc2c(NC3CCN(C(C)c4c(F)cc(F)cc4F)CC3)ncnc2s1 (centres unmarked) [Example B19, N-(1-(1-(2,4,6-trifluorophenyl)ethyl)piperidin-4-yl)-6-isobutylthieno[2,3-d]pyrimidin-4-amine, dihydrochloride]
< 15 min	CC(c1c(F)cccc1F)N1CCC(Nc2ncnc3sc4c(c23)CCCC4)CC1 (centres unmarked) [Example B21, N-(1-(1-(2,6-difluorophenyl)ethyl)piperidin-4-yl)5,6,7,8-tetrahydro-benzo[4,5]thieno[2,3-d]pyrimidin-4-amine, dihydrochloride]
< 15 min	CC(C#N)(c1cccc(F)c1)N1CCC(Nc2ncnc3sc4c(c23)CCCC4)CC1 (centres unmarked) [Example B23, 2-(3-fluorophenyl)-2-(4-(5,6,7,8-tetrahydro-benzo[4,5]thieno[2,3-d]pyrimidin-4-ylamino)piperidin-1-yl) propanenitrile, dihydrochloride]
< 15 min	CC(C)(c1cccc(F)c1)N1CCC(Nc2ncnc3sc4c(c23)CCCC4)CC1 [Example B24, N-(1-(2-(3-fluorophenyl)propan-2-yl)piperidin-4-yl)5,6,7,8-tetrahydro-benzo[4,5]thieno[2,3-d]pyrimidin-4-amine, dihydrochloride]
< 15 min	Fc1cccc(CNCCCNc2ncnc3sc4c(c23)CCCC4)c1 [Example B25, N-(3-(3-fluorobenzylamino)propyl)5,6,7,8-tetrahydro-benzo[4,5]thieno[2,3-d]pyrimidin-4-amine, dihydrochloride]
< 15 min	CC(NCCCNc1ncnc2sc3c(c12)CCCC3)c1cccc(F)c1 (centres unmarked) [Example B26, N-(3-(1-(3-fluorophenyl)ethylamino)propyl) 5,6,7,8-tetrahydro-benzo[4,5]thieno[2,3-d] pyrimidin-4-amine, dihydrochloride]
< 15 min	CC(C)Cc1cc2c(NCCCNC(C)c3cccc(F)c3)ncnc2s1 (centres unmarked) [Example B27, N-(3-(1-(3-fluorophenyl)ethylamino)propyl)-6-isobutylthieno[2,3-d]pyrimidin-4-amine, dihydrochloride]
11 min	Fc1cccc(C(N2CCC(Nc3ncnc4sc5c(c34)CCCC5)CC2)C(F)(F)F)c1 (centres unmarked) [Example B28, N-(1-(2,2,2-trifluoro-1-(3-fluorophenyl)ethyl)piperidin-4-yl)5,6,7,8-tetrahydro-benzo[4,5]thieno[2,3-d]pyrimidin-4-amine, dihydrochloride]
18 min	CC(C)Cc1cc2c(N3CCC(NCc4cc(F)cc(F)c4)CC3)ncnc2s1 [Example B29, N-(3,5-difluorobenzyl)-1-(6-isobutylthieno[2,3-d]pyrimidin-4-yl) piperidin-4-amine, dihydrochloride]
11 min	Cc1c(Cl)sc2ncnc(NC3CCN(Cc4cccc(F)c4)CC3)c12 [Example B37, N-(1-(3-fluorobenzyl)piperidin-4-yl)-6-chloro-5-methylthieno[2,3-d]pyrimidin-4-amine, dihydrochloride]
< 15 min	Cc1c(Cl)sc2ncnc(NC3CCN(Cc4ccccc4C#N)CC3)c12 [Example B39, 2-((4-(6-chloro-5-methylthieno[2,3-d]pyrimidin-4-ylamino)piperidin-1-yl)methyl) benzonitrile, dihydrochloride]
< 15 min	COc1ccccc1CN1CCC(Nc2ncnc3sc(Cl)c(C)c23)CC1 [Example B40, N-(1-(2-methoxybenzyl)piperidin-4-yl)-6-chloro-5-methylthieno[2,3-d] pyrimidin-4-amine, dihydrochloride]
86 min	NC(=O)c1cccc(CN2CCC(Nc3ncnc4sc(Cl)cc34)CC2)c1 [Example B45, 3-((4-(6-chlorothieno [2,3-d]pyrimidin-4-ylamino)piperidin-1-yl)methyl) benzamide, monomaleate]
60 min	Clc1cc2c(NC3CCN(Cc4cncnc4)CC3)ncnc2s1 [Example B49, 6-chloro-N-(1-((pyrimidin-5-yl)methyl)piperidin-4-yl)thieno[2,3-d] pyrimidin-4-amine, monomaleate]
10 min	N#Cc1ccc(F)c(CN2CCC(Nc3ncnc4sc(Cl)cc34)CC2)c1 [Example B51, 3-((4-(6-chlorothieno [2,3-d]pyrimidin-4-ylamino)piperidin-1-yl)methyl)-4-fluorobenzonitrile, monomaleate]
11 min	Clc1cccc(CN2CCC(Nc3ncnc4sc(Cl)cc34)CC2)c1 [Example B52, N-(1-(3-chlorobenzyl)piperidin-4-yl)-6-chlorothieno[2,3-d]pyrimidin-4-amine, monomaleate]
8 min	CC(C)c1c(Cl)sc2ncnc(NC3CCN(Cc4cccc(F)c4)CC3)c12 [Example B53, N-(1-(3-fluorobenzyl)piperidin-4-yl)-6-chloro-5-isopropylthieno[2,3-d]pyrimidin-4-amine, monomaleate]
16 min	FC(F)(F)c1cccc(CN2CCC(Nc3ncnc4sc(Cl)cc34)CC2)c1 [Example B54, N-(1-(3-(trifluoromethyl)benzyl)piperidin-4-yl)-6-chlorothieno[2,3-d]pyrimidin-4-amine, monomaleate]

Structure (SMILES)	half-life
Fc1cccc(CN2CCC(Nc3ncnc4sc(Cl)cc34)CC2)c1 [Example B41, N-(1-(3-fluorobenzyl)piperidin-4-yl)-6-chlorothieno[2,3-d]pyrimidin-4-amine, dihydrochloride]	10 min
